From ChEMBL document CHEMBL5046289, “Targeting the S2 Subsite Enables the Structure-Based Discovery of Novel Highly Selective Factor XIa Inhibitors” (J Med Chem, 2022)
Activity calls are given as the source filed them. The calls are words filed in the database; no cut-off is given here.

Assays:
Coagulation factor XI [1] = biological target: T1, Coagulation factor XI (Homo sapiens, UniProt P03951); assay: Inhibition of coagulation factor XIa (unknown origin) assessed as chromogenic substrate hydrolysis using CS-21(66) as substrate incubated for 1 hr by spectrophotometer based microplate reader method
Homo sapiens [2] = species on record: Homo sapiens; assay: Selectivity index, ratio of IC50 for plasma kallikrein (unknown origin) to IC50 for coagulation factor XIa (unknown origin)
Coagulation factor X = Coagulation factor X (Homo sapiens, UniProt P00742); assay: Inhibition of coagulation factor Xa (unknown origin) assessed as chromogenic substrate using CS-11(22) as substrate incubated for 1 hr by spectrophotometer based microplate reader method
[3] = biological target: T2, Coagulation factor XII (Homo sapiens) (UniProt P00748); assay: Inhibition of coagulation factor XIIa (unknown origin) assessed as chromogenic substrate using TH5253 as substrate at 1 mM incubated for 1 hr by spectrophotometer based microplate reader method
T2 sequence (whole entry): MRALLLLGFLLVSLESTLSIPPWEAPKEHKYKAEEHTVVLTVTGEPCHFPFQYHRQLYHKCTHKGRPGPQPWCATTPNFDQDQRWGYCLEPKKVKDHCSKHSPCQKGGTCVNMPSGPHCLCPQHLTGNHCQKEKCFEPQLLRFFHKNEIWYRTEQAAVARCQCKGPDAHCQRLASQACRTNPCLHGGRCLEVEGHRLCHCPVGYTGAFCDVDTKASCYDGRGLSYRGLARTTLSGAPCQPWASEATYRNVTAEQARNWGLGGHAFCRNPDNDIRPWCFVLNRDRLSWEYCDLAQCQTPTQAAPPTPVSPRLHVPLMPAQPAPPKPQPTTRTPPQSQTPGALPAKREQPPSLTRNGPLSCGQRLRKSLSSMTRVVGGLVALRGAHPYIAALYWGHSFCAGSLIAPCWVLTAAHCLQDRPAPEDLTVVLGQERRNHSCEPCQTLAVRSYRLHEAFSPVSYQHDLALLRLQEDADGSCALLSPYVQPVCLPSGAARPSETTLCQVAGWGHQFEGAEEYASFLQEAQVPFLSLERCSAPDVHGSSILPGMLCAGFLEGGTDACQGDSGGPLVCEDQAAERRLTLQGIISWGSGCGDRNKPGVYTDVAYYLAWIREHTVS

[4] = biological target: Coagulation factor IX (Homo sapiens) (UniProt P00740); assay: Inhibition of coagulation factor IXa (unknown origin) assessed as chromogenic substrate using ADG299 as substrate at 1 mM incubated for 1 hr by spectrophotometer based microplate reader method
[5] = biological target: Serine protease 1 (Homo sapiens) (UniProt P07477); assay: Inhibition of trypsin (unknown origin) assessed as chromogenic substrate using CS-11(22) as substrate at 1 mM incubated for 1 hr by spectrophotometer based microplate reader method
Prothrombin = Prothrombin (Homo sapiens, UniProt P00734); assay: Inhibition of thrombin (unknown origin) assessed as chromogenic substrate using CS-10(38) as substrate incubated for 1 hr by spectrophotometer based microplate reader method
Homo sapiens [6] = species on record: Homo sapiens; assay: Selectivity index, ratio of IC50 for coagulation factor Xa (unknown origin) to IC50 for coagulation factor XIa (unknown origin)
Homo sapiens [7] = species on record: Homo sapiens; assay: Selectivity index, ratio of IC50 for coagulation factor VIIa (unknown origin) to IC50 for coagulation factor XIa (unknown origin)
Homo sapiens [8] = species on record: Homo sapiens; assay: Selectivity index, ratio of IC50 for trypsin (unknown origin) to IC50 for coagulation factor XIa (unknown origin)
Plasma [9] = assay: Anticoagulant activity in mouse platelet-poor plasma assessed as increase in prothrombin time at 3.8 to 210 ug/ml incubated for 3 mins by coagulometer analysis; type: functional, cell-free; settings: dose 3.8-210 µg/ml
Plasma [10] = assay: Anticoagulant activity in mouse platelet-poor plasma assessed as increase in activated partial thromboplastin time at 22 ug/ml incubated for 3 mins by coagulometer analysis; type: functional, cell-free; settings: dose 22.0 µg/ml
[11] = AUC(0 to t) in Sprague-Dawley rat at 10 mg/kg, iv after 0.083 to 24 hrs by LC-MS/MS analysis; type: ADME, organism-based; set-up: route intravenous, time upper 24 hrs, time lower 0.083 hrs, dose 10 mg/kg; settings: in vivo
[12] = Clearance in Sprague-Dawley rat at 10 mg/kg, iv after 0.083 to 24 hrs by LC-MS/MS analysis; type: ADME, organism-based; settings: in vivo, time 0.083-24 hrs
[13] = AUC(0 to infinity) in Sprague-Dawley rat at 10 mg/kg, iv after 0.083 to 24 hrs by LC-MS/MS analysis; type: ADME, organism-based; set-up: route intravenous, dose 10 mg/kg, time upper 24 hrs, time lower 0.083 hrs; settings: in vivo
[14] = Apparent volume of distribution in Sprague-Dawley rat at 10 mg/kg, iv after 0.083 to 24 hrs by LC-MS/MS analysis; type: ADME, organism-based; settings: in vivo, time 0.083-24 hrs, read-out: Vz
[15] = MRT(0 to t) in Sprague-Dawley rat at 10 mg/kg, iv after 0.083 to 24 hrs by LC-MS/MS analysis; type: ADME, organism-based; settings: in vivo, time 0.083-24 hrs
Mus musculus = assay: Antithrombotic activity against FeCl3-induced carotid artery thrombosis C57BL/6J mouse model assessed as prolongation of occlusion time pretreated at 19.5 mg/kg, iv tail vein injection for 10 mins followed by FeCl3 addition for 3 mins and measured after 30 mins; type: functional, organism-based; settings: time 43.0 min
[16] = Acute toxicity in ICR mouse assessed as histological change in spleen at 50 to 100 mg/kg, iv as single dose for 14 days by H and E staining method; type: organism-based; settings: in vivo, 336 h, dose 50-100 mg/kg, time 14 day
[17] = Acute toxicity in ICR mouse assessed as histological change in lung at 50 to 100 mg/kg, iv as single dose for 14 days by H and E staining method; type: organism-based; settings: in vivo, 336 h, dose 50-100 mg/kg, time 14 day
[18] = Acute toxicity in ICR mouse assessed as histological change in heart at 50 to 100 mg/kg, iv as single dose for 14 days by H and E staining method; type: organism-based; settings: in vivo, 336 h, dose 50-100 mg/kg, time 14 day
[19] = Acute toxicity in ICR male mouse assessed as effect on weight loss at 50 to 100 mg/kg, iv as single dose for 14 days; type: organism-based; settings: in vivo, 336 h, dose 50-100 mg/kg, time 14 day
[20] = Acute toxicity in ICR female mouse assessed as effect on weight loss at 50 to 100 mg/kg, iv as single dose for 14 days; type: organism-based; settings: in vivo, 336 h, dose 50-100 mg/kg, time 14 day
[21] = Toxicity in C57BL/6J mouse assessed as bleeding risk at 19.5 to 39 mg/kg, iv measured after 15 mins by tail transection assay; type: organism-based; settings: in vivo, 0.25 h, dose 19.5-39 mg/kg
[22] = Toxicity in C57BL/6J mouse assessed as bleeding risk at 60 to 100 mg/kg, iv measured after 15 mins by tail transection assay; type: organism-based; settings: in vivo, 0.25 h, dose 60-100 mg/kg
Coagulation factor XI [23] = biological target: T1, Coagulation factor XI; settings: dose 50.0 nM, time 1.0 hrs

T1 sequence (P03951 19-387 limits assumed): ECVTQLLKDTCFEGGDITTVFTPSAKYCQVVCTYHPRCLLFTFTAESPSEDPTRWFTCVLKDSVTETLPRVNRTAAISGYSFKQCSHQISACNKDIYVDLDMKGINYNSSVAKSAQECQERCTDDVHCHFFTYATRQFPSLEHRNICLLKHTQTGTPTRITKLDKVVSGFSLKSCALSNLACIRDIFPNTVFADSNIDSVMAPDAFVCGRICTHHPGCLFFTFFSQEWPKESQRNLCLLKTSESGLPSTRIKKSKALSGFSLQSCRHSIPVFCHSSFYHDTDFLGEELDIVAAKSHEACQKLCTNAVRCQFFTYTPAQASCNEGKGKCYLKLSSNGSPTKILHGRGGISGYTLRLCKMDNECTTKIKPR
T1 sequence (P03951 388-625 limits assumed): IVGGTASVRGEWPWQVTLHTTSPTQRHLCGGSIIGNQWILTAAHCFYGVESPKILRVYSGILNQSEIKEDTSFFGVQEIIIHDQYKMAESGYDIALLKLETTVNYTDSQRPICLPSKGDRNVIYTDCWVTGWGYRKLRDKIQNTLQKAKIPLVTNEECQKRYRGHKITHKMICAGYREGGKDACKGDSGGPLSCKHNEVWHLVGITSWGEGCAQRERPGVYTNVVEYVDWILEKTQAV
Sequence of Serine protease 1 (Homo sapiens) (P07477 whole entry): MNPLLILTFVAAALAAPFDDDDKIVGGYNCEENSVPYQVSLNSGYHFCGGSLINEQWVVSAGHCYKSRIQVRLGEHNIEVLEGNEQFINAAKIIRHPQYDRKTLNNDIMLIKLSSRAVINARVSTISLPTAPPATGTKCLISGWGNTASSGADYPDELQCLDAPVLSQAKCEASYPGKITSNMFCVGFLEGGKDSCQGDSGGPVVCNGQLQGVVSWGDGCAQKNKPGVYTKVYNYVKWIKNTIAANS
Sequence of Coagulation factor X (P00742 41-179 limits assumed): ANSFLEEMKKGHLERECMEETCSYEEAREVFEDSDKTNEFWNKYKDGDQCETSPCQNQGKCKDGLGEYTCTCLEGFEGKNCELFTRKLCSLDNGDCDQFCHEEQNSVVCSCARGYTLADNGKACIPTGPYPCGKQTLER
Sequence of Coagulation factor X (P00742 235-488 limits assumed): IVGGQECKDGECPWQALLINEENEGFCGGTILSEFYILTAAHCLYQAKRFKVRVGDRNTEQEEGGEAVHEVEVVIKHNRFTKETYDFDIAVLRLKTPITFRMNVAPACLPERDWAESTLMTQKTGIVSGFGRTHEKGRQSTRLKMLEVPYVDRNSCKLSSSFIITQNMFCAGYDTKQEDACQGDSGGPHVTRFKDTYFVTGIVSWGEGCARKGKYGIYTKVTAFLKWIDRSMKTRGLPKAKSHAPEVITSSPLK
Sequence of Coagulation factor IX (Homo sapiens) (P00740 47-191 limits assumed): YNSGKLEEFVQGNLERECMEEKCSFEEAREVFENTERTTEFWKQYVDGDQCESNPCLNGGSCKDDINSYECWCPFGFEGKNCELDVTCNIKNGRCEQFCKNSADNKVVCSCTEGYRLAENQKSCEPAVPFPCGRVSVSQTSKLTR
Sequence of Coagulation factor IX (Homo sapiens) (P00740 227-461 limits assumed): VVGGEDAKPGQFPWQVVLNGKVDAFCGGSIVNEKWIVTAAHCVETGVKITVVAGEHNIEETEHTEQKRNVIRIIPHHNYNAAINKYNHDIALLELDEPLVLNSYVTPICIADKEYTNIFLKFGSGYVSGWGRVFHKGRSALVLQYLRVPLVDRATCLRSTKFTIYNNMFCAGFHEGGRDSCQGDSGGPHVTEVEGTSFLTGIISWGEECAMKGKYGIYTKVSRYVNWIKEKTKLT

Work on `O=C(/C=C/c1cc(Cl)ccc1-n1cnnn1)N[C@@H](CC(=O)N1CCN(c2ccccc2)CC1)C(=O)Nc1ccc(C(=O)O)cc1` yielded an IC50 (Coagulation factor XI [1]) of 0.0142 µM, a Ratio IC50 (Homo sapiens [2]) of 1960 and an IC50 (Coagulation factor X) of 340 µM. For the same compound, the inhibition [3] was “inactive”, the inhibition [4] was “inactive” and the inhibition [5] was “inactive”. For the same compound, the IC50 (Prothrombin) was 460 µM, the Ratio IC50 (Homo sapiens [6]) was over 5000 and the Ratio IC50 (Homo sapiens [7]) was over 5000. The Ratio IC50 (Homo sapiens [8]) was over 5000, the Activity (Plasma [9]) was “inactive” and the Activity (Plasma [10]) was “Active”. For the same compound, the AUC(0-t) [11] was 18300 ng·h/mL, the clearance [12] was 9.22 mL/min/kg and the AUC(0-inf) [13] was 18400 ng·h/mL. For the same compound, the Vd [14] was 0.969 L/kg, the MRT last [15] was 19.2 min and the Activity (Mus musculus) was “Active”. For the same compound, the Activity [16] was “Non-Toxic”, the Activity [17] was “Non-Toxic” and the Activity [18] was “Non-Toxic”. For the same compound, the Activity [19] was “Non-Toxic”, the Activity [20] was “Non-Toxic” and the Activity [21] was “Non-Toxic”. For the same compound, the Activity [22] was “Non-Toxic” and the inhibition (Coagulation factor XI [23]) was 59.4%.
